Data published in PubChem BioAssay (NCI).
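The compound was tested at five concentrations on cells cultured in 96-well plates, with a 48-hour exposure period. The concentration for full growth arrest is given as TGI.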 The source made the active and inactive calls. Cut-off read from the data, not from the text of the source: active = GI50 below about 0.43 µM; inactive = the rest.

Experiments:
Test in all cases: DTP human tumour cell line panel, 48 h
[1] = test system: 786-0 renal
[2] = test system: A498 renal
[3] = test system: A549 NSCLC
[4] = test system: ACHN renal
[5] = test system: CAKI-1 renal
[6] = test system: CCRF-CEM leukemia
[7] = test system: COLO 205 colon
[8] = test system: DLD-1 colon
[9] = test system: DMS 114 small cell lung
[10] = test system: DMS 273 small cell lung
[11] = test system: HCC-2998 colon
[12] = test system: HCT-116 colon
[13] = test system: HCT-15 colon
[14] = test system: HL-60(TB) leukemia
[15] = test system: HOP-18 NSCLC
[16] = test system: HOP-62 NSCLC
[17] = test system: HOP-92 NSCLC
[18] = test system: HT29 colon
[19] = test system: IGROV1 ovarian
[20] = test system: K-562 leukemia
[21] = test system: KM12 colon
[22] = test system: KM20L2 colon
[23] = test system: LOX IMVI melanoma
[24] = test system: LXFL 529 NSCLC
[25] = test system: M14 melanoma
[26] = test system: M19-MEL melanoma
[27] = test system: MALME-3M melanoma
[28] = test system: MOLT-4 leukemia
[29] = test system: NCI-H23 lung
[30] = test system: NCI-H460 lung
[31] = test system: NCI-H522 lung
[32] = test system: OVCAR-3 ovarian
[33] = test system: OVCAR-4 ovarian
[34] = test system: OVCAR-5 ovarian
[35] = test system: OVCAR-8 ovarian
[36] = test system: RPMI-8226 leukemia
[37] = test system: RXF 393 renal
[38] = test system: RXF-631 renal
[39] = test system: SF-268 CNS
[40] = test system: SF-295 CNS
[41] = test system: SF-539 CNS
[42] = test system: SK-MEL-2 melanoma
[43] = test system: SK-MEL-28 melanoma
[44] = test system: SK-MEL-5 melanoma
[45] = test system: SK-OV-3 ovarian
[46] = test system: SN12C renal
[47] = test system: SNB-19 CNS
[48] = test system: SNB-75 CNS
[49] = test system: SNB-78 CNS
[50] = test system: SW-620 colon
[51] = test system: TK-10 renal
[52] = test system: U251 CNS
[53] = test system: UACC-257 melanoma
[54] = test system: UACC-62 melanoma
[55] = test system: UO-31 renal
[56] = test system: EKVX NSCLC
[57] = test system: NCI-H226 lung
[58] = test system: XF 498 CNS
[59] = test system: SR leukemia

## O=S(=O)(SCCCCSS(=O)(=O)c1ccc(Cl)cc1)c1ccc(Cl)cc1
[1]
  TGI: 21.4 µM
[2]
  TGI: 32.9 µM
[3]
  TGI: 37.2 µM
[4]
  TGI: 31 µM
[5]
  TGI: 27.8 µM
[6]
  TGI: 4.5 µM
[7]
  TGI: 28.2 µM
[8]
  TGI: 27.5 µM
[9]
  TGI: 20.7 µM
[10]
  TGI: 23.3 µM
[11]
  TGI: 34.1 µM
[12]
  TGI: 24.3 µM
[13]
  TGI: 27.4 µM
[14]
  TGI: 8.85 µM
[15]
  TGI: 32.9 µM
[16]
  TGI: 36.6 µM
[17]
  TGI: 21 µM
[18]
  TGI: 32.1 µM
[19]
  TGI: 19.4 µM
[20]
  TGI: 48.8 µM
[21]
  TGI: 22.8 µM
[22]
  TGI: 33.8 µM
[23]
  TGI: 11.3 µM
[24]
  TGI: 24.7 µM
[25]
  TGI: 27.7 µM
[26]
  TGI: 30.8 µM
[27]
  TGI: 32.4 µM
[28]
  TGI: 10.1 µM
[29]
  TGI: 22.9 µM
[30]
  TGI: 29.5 µM
[31]
  TGI: 17 µM
[32]
  TGI: 28 µM
[33]
  TGI: 33.5 µM
[34]
  TGI: 30.4 µM
[35]
  TGI: 25.5 µM
[36]
  TGI: 28.5 µM
[37]
  TGI: 34.2 µM
[38]
  TGI: 21.5 µM
[39]
  TGI: 29.1 µM
[40]
  TGI: 15.2 µM
[41]
  TGI: 25 µM
[42]
  TGI: 33.2 µM
[43]
  TGI: 34.3 µM
[44]
  TGI: 30.5 µM
[45]
  TGI: 30.1 µM
[46]
  TGI: 22.5 µM
[47]
  TGI: 28 µM
[48]
  TGI: 33.3 µM
[49]
  TGI: 56.4 µM
[50]
  TGI: 23 µM
[51]
  TGI: 47.7 µM
[52]
  TGI: 21 µM
[53]
  TGI: 37.2 µM
[54]
  TGI: 28.9 µM
[55]
  TGI: 21.1 µM

## O=C(CC1(O)C(=O)Nc2ccccc21)c1ccc2ccccc2c1 (stereo not drawn)
[1]
  TGI: > 100 µM
[2]
  TGI: > 100 µM
[3]
  TGI: > 100 µM
[4]
  TGI: > 100 µM
[5]
  TGI: > 100 µM
[7]
  TGI: > 100 µM
[8]
  TGI: > 100 µM
[9]
  TGI: > 100 µM
[10]
  TGI: > 100 µM
[56]
  TGI: > 100 µM
[11]
  TGI: > 100 µM
[12]
  TGI: > 100 µM
[13]
  TGI: > 100 µM
[14]
  TGI: > 100 µM
[16]
  TGI: > 100 µM
[17]
  TGI: > 100 µM
[18]
  TGI: > 100 µM
[19]
  TGI: > 100 µM
[20]
  TGI: > 100 µM
[22]
  TGI: > 100 µM
[23]
  TGI: > 100 µM
[24]
  TGI: > 100 µM
[25]
  TGI: > 100 µM
[26]
  TGI: > 100 µM
[27]
  TGI: > 100 µM
[28]
  TGI: > 100 µM
[57]
  TGI: > 100 µM
[29]
  TGI: > 100 µM
[30]
  TGI: > 100 µM
[31]
  TGI: > 100 µM
[32]
  TGI: > 100 µM
[33]
  TGI: > 100 µM
[34]
  TGI: > 100 µM
[35]
  TGI: > 100 µM
[36]
  TGI: > 100 µM
[37]
  TGI: > 100 µM
[38]
  TGI: > 100 µM
[39]
  TGI: > 100 µM
[40]
  TGI: > 100 µM
[41]
  TGI: > 100 µM
[42]
  TGI: > 100 µM
[43]
  TGI: > 100 µM
[44]
  TGI: > 100 µM
[45]
  TGI: > 100 µM
[46]
  TGI: > 100 µM
[47]
  TGI: > 100 µM
[48]
  TGI: > 100 µM
[49]
  TGI: > 100 µM
[50]
  TGI: > 100 µM
[51]
  TGI: > 100 µM
[53]
  TGI: > 100 µM
[54]
  TGI: > 100 µM
[55]
  TGI: > 100 µM
[58]
  TGI: > 100 µM

## O=c1[nH]ccc2c1ccn2C1CC(O)C(CO)O1 (stereo not drawn)
[1]
  TGI: > 100 µM
[2]
  TGI: > 100 µM
[3]
  TGI: > 100 µM
[4]
  TGI: > 100 µM
[5]
  TGI: > 100 µM
[6]
  TGI: > 100 µM
[7]
  TGI: > 100 µM
[8]
  TGI: > 100 µM
[9]
  TGI: > 100 µM
[10]
  TGI: > 100 µM
[56]
  TGI: > 100 µM
[11]
  TGI: > 100 µM
[12]
  TGI: > 100 µM
[13]
  TGI: > 100 µM
[14]
  TGI: > 100 µM
[15]
  TGI: > 100 µM
[16]
  TGI: > 100 µM
[17]
  TGI: > 100 µM
[18]
  TGI: > 100 µM
[19]
  TGI: > 100 µM
[20]
  TGI: > 100 µM
[21]
  TGI: > 100 µM
[23]
  TGI: > 100 µM
[24]
  TGI: > 100 µM
[25]
  TGI: > 100 µM
[26]
  TGI: > 100 µM
[27]
  TGI: > 100 µM
[28]
  TGI: > 100 µM
[57]
  TGI: > 100 µM
[29]
  TGI: > 100 µM
[30]
  TGI: > 100 µM
[31]
  TGI: > 100 µM
[32]
  TGI: > 100 µM
[33]
  TGI: > 100 µM
[34]
  TGI: > 100 µM
[35]
  TGI: > 100 µM
[36]
  TGI: > 100 µM
[38]
  TGI: > 100 µM
[40]
  TGI: > 100 µM
[41]
  TGI: > 100 µM
[42]
  TGI: > 100 µM
[43]
  TGI: > 100 µM
[44]
  TGI: > 100 µM
[45]
  TGI: > 100 µM
[46]
  TGI: > 100 µM
[47]
  TGI: > 100 µM
[48]
  TGI: > 100 µM
[49]
  TGI: > 100 µM
[59]
  TGI: > 100 µM
[50]
  TGI: > 100 µM
[51]
  TGI: > 100 µM
[52]
  TGI: > 100 µM
[53]
  TGI: > 100 µM
[54]
  TGI: > 100 µM
[55]
  TGI: > 100 µM

## O=C(NC1C(O)C(O)C(CO)OC1n1cc(F)c(=O)[nH]c1=O)OCc1ccccc1 (stereo not drawn)
[2]
  TGI: > 100 µM
[3]
  TGI: > 100 µM
[4]
  TGI: > 100 µM
[5]
  TGI: > 100 µM
[6]
  TGI: > 100 µM
[7]
  TGI: > 100 µM
[8]
  TGI: > 100 µM
[9]
  TGI: > 100 µM
[10]
  TGI: > 100 µM
[11]
  TGI: > 100 µM
[12]
  TGI: > 100 µM
[13]
  TGI: > 100 µM
[14]
  TGI: > 100 µM
[15]
  TGI: > 100 µM
[16]
  TGI: > 100 µM
[17]
  TGI: > 100 µM
[18]
  TGI: > 100 µM
[21]
  TGI: > 100 µM
[22]
  TGI: > 100 µM
[23]
  TGI: > 100 µM
[24]
  TGI: > 100 µM
[25]
  TGI: > 100 µM
[27]
  TGI: > 100 µM
[57]
  TGI: > 100 µM
[29]
  TGI: > 100 µM
[30]
  TGI: > 100 µM
[31]
  TGI: > 100 µM
[33]
  TGI: > 100 µM
[34]
  TGI: > 100 µM
[36]
  TGI: > 100 µM
[37]
  TGI: > 100 µM
[38]
  TGI: > 100 µM
[39]
  TGI: > 100 µM
[40]
  TGI: > 100 µM
[42]
  TGI: > 100 µM
[43]
  TGI: > 100 µM
[44]
  TGI: > 100 µM
[45]
  TGI: > 100 µM
[46]
  TGI: > 100 µM
[47]
  TGI: > 100 µM
[48]
  TGI: > 100 µM
[49]
  TGI: > 100 µM
[59]
  TGI: > 100 µM
[50]
  TGI: > 100 µM
[51]
  TGI: > 100 µM
[52]
  TGI: > 100 µM
[53]
  TGI: > 100 µM

## C=CCCCCC1CCC2CCC(CCCC)N12 (stereo not drawn)
[1]
  outcome: inactive
[3]
  outcome: inactive
[4]
  outcome: inactive
[6]
  outcome: inactive
[7]
  outcome: inactive
[8]
  outcome: inactive
[9]
  outcome: inactive
[10]
  outcome: inactive
[11]
  outcome: inactive
[12]
  outcome: inactive
[14]
  outcome: inactive
[16]
  outcome: inactive
[17]
  outcome: inactive
[19]
  outcome: inactive
[20]
  outcome: inactive
[21]
  outcome: inactive
[22]
  outcome: inactive
[23]
  outcome: inactive
[24]
  outcome: inactive
[25]
  outcome: inactive
[26]
  outcome: inactive
[27]
  outcome: inactive
[28]
  outcome: inactive
[57]
  outcome: inactive
[29]
  outcome: inactive
[30]
  outcome: inactive
[31]
  outcome: inactive
[32]
  outcome: inactive
[33]
  outcome: inactive
[34]
  outcome: inactive
[35]
  outcome: inactive
[36]
  outcome: inactive
[37]
  outcome: inactive
[38]
  outcome: inactive
[39]
  outcome: inactive
[40]
  outcome: inactive
[41]
  outcome: inactive
[42]
  outcome: inactive
[43]
  outcome: inactive
[44]
  outcome: inactive
[45]
  outcome: inactive
[46]
  outcome: inactive
[47]
  outcome: inactive
[48]
  outcome: inactive
[49]
  outcome: inactive
[50]
  outcome: inactive
[51]
  outcome: inactive
[52]
  outcome: inactive
[53]
  outcome: inactive
[54]
  outcome: inactive
[55]
  outcome: inactive
[58]
  outcome: inactive
